Source: ChEMBL document CHEMBL4673290, “Diazaspirononane Nonsaccharide Inhibitors of O-GlcNAcase (OGA) for the Treatment of Neurodegenerative Disorders” (J Med Chem, 2020)

Experiment: Selectivity ratio of IC50 for inhibition of clostridium perfringens OGA to IC50 for Inhibition of human recombinant full-length OGA transcript variant 1 expressed in HEK293T cells
Format: cell-based

SMILES | Ratio IC50
CC(=O)Nc1ncc(CN2CC3(CCN(c4cc(C)nc5ncnn45)C3)C2)s1 | 100
CC(=O)Nc1ncc(CN2CCC3(CCN(c4cc(C)nc5ncnn45)C3)C2)s1 (configuration not stated) | 100
